These results are taken from patent US20010008891A1, “PHARMACEUTICAL COMPOSITIONS COMPRISING A XANTHINE AND A CATECHIN” (priority 1998, published 2001).

Each structure is given as a SMILES string.

The experiment has as its system human platelet rich plasma. In words: ADP induced platelet aggregation test in human platelet rich plasma. The experiment is classed as cell-based.

Protocol: The antiplatelet aggregatory activity was measured using human platelet rich plasma as described below, and in Subbiah et al. Brazilian Journal of Medical and Biological Research 1988; 21: 535-538.
Platelet-rich plasma (PRP) was obtained by centrifuging blood collected in 3.8% trisodium citrate (9:1, v/v) from human volunteers or from the blood bank for 15 minutes at 700 rpm. Remaining blood was centrifuged at 2500 rpm for 25 minutes to obtain platelet-poor plasma (PPP). The platelets were quantified with an electronic counter (Coulter Electronics, Inc., Hialeah, Fla.). The platelet count was adjusted to 300,000-350,000/mm^3 with PPP, and 0.45 ml used in each test of aggregation.
ADP (Sigma Chemical Co. St. Louis, Mo.) (0.1 mg/ml), and arachidonic acid (NuCheck Pre, Elysian, Minn.) (1.0 mg/ml in 20 mM Na2CO3) were used as aggregatory agents. Samples were warmed to 37° C. with stirring for approximately two minutes prior to the addition of 50 μl of aggregating agents. Guarana (or its fractions) or caffeine (alone or in combination with catechins) were added before the addition of ADP or arachidonic acid. The change in percentage light transmission was recorded with a dual aggregometer (Chrono-Log Co, Havertown, Pa.) after addition of aggregation agents.

Consider `Cn1c(=O)c2c(ncn2C)n(C)c1=O` [caffeine], for which the “platelet aggregation inhibitory activity (in words)” value is on record as “only weakly active”.
